Source: ChEMBL document CHEMBL4219271, “Synthesis and anti-proliferative activity of allogibberic acid derivatives containing 1,2,3-triazole pharmacophore” (Bioorg Med Chem Lett, 2018)

Columns and labels:
Assay type in all cases: functional, cell-based
[1] = tested on: HL-60; assay: Cytotoxicity against human HL60 cells assessed as decrease in cell viability after 4 days by MTT assay; conditions: HL-60, 96 h
[2] = tested on: SMMC-7721; assay: Cytotoxicity against human SMMC7721 cells assessed as decrease in cell viability after 4 days by MTT assay; conditions: SMMC-7721, 96 h
[3] = tested on: A549; assay: Cytotoxicity against human A549 cells assessed as decrease in cell viability after 4 days by MTT assay; conditions: A549, 96 h
[4] = tested on: MCF7; assay: Cytotoxicity against human MCF7 cells assessed as decrease in cell viability after 4 days by MTT assay; conditions: MCF7, 96 h
[5] = tested on: SW480; assay: Cytotoxicity against human SW480 cells assessed as decrease in cell viability after 4 days by MTT assay; conditions: SW480, 96 h

`COc1ccc(-c2cn(C[C@H]3c4c(ccc(O)c4C)[C@@H]4CC[C@@]5(C)C[C@]43CC5=O)nn2)cc1` was tested, and the IC50 [1] was over 20 µM, the IC50 [2] was over 20 µM and the IC50 [3] was over 20 µM. For the same compound, the IC50 [4] was over 20 µM and the IC50 [5] was over 20 µM.

`C=C1C[C@]23C[C@@]1(O)CC[C@H]2c1ccc(O)c(C)c1[C@@H]3Cn1cc(-c2ccc(Br)cc2)nn1` showed an IC50 [1] of over 20 µM, an IC50 [2] of over 20 µM and an IC50 [3] of over 20 µM. For the same compound, the IC50 [4] was over 20 µM and the IC50 [5] was over 20 µM.

`C=C1C[C@]23C[C@@]1(O)CC[C@H]2c1ccc(OS(=O)(=O)c2ccc(C)cc2)c(C)c1[C@@H]3Cn1cc(-c2ccc(C(F)(F)F)cc2)nn1` gave an IC50 [1] of over 20 µM, an IC50 [2] of over 20 µM and an IC50 [3] of over 20 µM. For the same compound, the IC50 [4] was over 20 µM and the IC50 [5] was over 20 µM.

With `C=C1C[C@]23C[C@@]1(O)CC[C@H]2c1cc(Br)c(O)c(C)c1[C@@H]3Cn1cc(-c2ccc(F)cc2)nn1` the IC50 [1] was 6.6 µM, the IC50 [2] was over 20 µM and the IC50 [3] was 17.9 µM. For the same compound, the IC50 [4] was 19.2 µM and the IC50 [5] was over 20 µM.

In the case of `Cc1ccc(S(=O)(=O)Oc2ccc3c(c2C)[C@H](Cn2cc(-c4ccccc4)nn2)[C@@]24CC(=O)[C@@](C)(CC[C@@H]32)C4)cc1`, the IC50 [1] is reported as over 20 µM, the IC50 [2] is reported as over 20 µM and the IC50 [3] is reported as over 20 µM. The IC50 [4] was over 20 µM and the IC50 [5] was over 20 µM.

`Cc1c(O)ccc2c1[C@H](Cn1cc(-c3ccc(F)cc3)nn1)[C@@]13CC(=O)[C@@](C)(CC[C@@H]21)C3` gave an IC50 [1] of over 20 µM, an IC50 [2] of over 20 µM and an IC50 [3] of over 20 µM. For the same compound, the IC50 [4] was over 20 µM and the IC50 [5] was over 20 µM.

`Cc1ccc(S(=O)(=O)Oc2ccc3c(c2C)[C@H](Cn2cc(-c4ccc(Cl)cc4)nn2)[C@@]24CC(=O)[C@@](C)(CC[C@@H]32)C4)cc1` was tested, and the IC50 [1] was over 20 µM, the IC50 [2] was over 20 µM and the IC50 [3] was over 20 µM. The IC50 [4] was over 20 µM and the IC50 [5] was over 20 µM.

Compound `C=C1C[C@]23C[C@@]1(O)CC[C@@H]2c1cccc(C)c1[C@@H]3Cn1cc(-c2ccc(F)cc2)nn1` has an IC50 [1] of over 20 µM, an IC50 [2] of over 20 µM and an IC50 [3] of over 20 µM. It also gave an IC50 [4] of over 20 µM and an IC50 [5] of over 20 µM.

Work on `Cc1ccc(S(=O)(=O)Oc2ccc3c(c2C)[C@H](Cn2cc(-c4ccccn4)nn2)[C@@]24CC(=O)[C@@](C)(CC[C@@H]32)C4)cc1` yielded an IC50 [1] of over 20 µM, an IC50 [2] of over 20 µM and an IC50 [3] of over 20 µM. It also gave an IC50 [4] of over 20 µM and an IC50 [5] of over 20 µM.

For `Cc1c(O)ccc2c1[C@H](Cn1cc(-c3ccccc3)nn1)[C@@]13CC(=O)[C@@](C)(CC[C@@H]21)C3`, the IC50 [1] was over 20 µM, the IC50 [2] was over 20 µM and the IC50 [3] was over 20 µM. For the same compound, the IC50 [4] was over 20 µM and the IC50 [5] was over 20 µM.

Compound `C=C1C[C@]23C[C@@]1(O)CC[C@H]2c1ccc(O)c(C)c1[C@@H]3Cn1cc(-c2ccc(C(F)(F)F)cc2)nn1` has an IC50 [1] of 8.95 µM, an IC50 [2] of over 20 µM and an IC50 [3] of 10.4 µM. It also gave an IC50 [4] of 12.4 µM and an IC50 [5] of over 20 µM.

`C=C1C[C@]23C[C@@]1(O)CC[C@@H]2c1cccc(C)c1[C@@H]3Cn1cc(-c2ccccc2)nn1` showed an IC50 [1] of over 20 µM, an IC50 [2] of over 20 µM and an IC50 [3] of over 20 µM. It also gave an IC50 [4] of over 20 µM and an IC50 [5] of over 20 µM.

For `C=C1C[C@]23C[C@@]1(O)CC[C@@H]2c1cccc(C)c1[C@@H]3Cn1cc(-c2ccc(Cl)cc2)nn1`, the IC50 [1] was over 20 µM, the IC50 [2] was over 20 µM and the IC50 [3] was over 20 µM. It also gave an IC50 [4] of over 20 µM and an IC50 [5] of over 20 µM.

Work on `C=C1C[C@]23C[C@@]1(O)CC[C@H]2c1ccc(OS(=O)(=O)c2ccc(C)cc2)c(C)c1[C@@H]3Cn1cc(-c2ccc(Br)cc2)nn1` yielded an IC50 [1] of over 20 µM, an IC50 [2] of over 20 µM and an IC50 [3] of over 20 µM. The IC50 [4] was over 20 µM and the IC50 [5] was over 20 µM.

For `C=C1C[C@]23C[C@@]1(O)CC[C@H]2c1ccc(OS(=O)(=O)c2ccc(C)cc2)c(C)c1[C@@H]3Cn1cc(-c2ccc(F)cc2)nn1`, the IC50 [1] was over 20 µM, the IC50 [2] was over 20 µM and the IC50 [3] was over 20 µM. It also gave an IC50 [4] of over 20 µM and an IC50 [5] of over 20 µM.

Work on `C=C1C[C@]23C[C@@]1(O)CC[C@H]2c1cc(Br)c(O)c(C)c1[C@@H]3Cn1cc(-c2ccc(C(F)(F)F)cc2)nn1` yielded an IC50 [1] of 7.38 µM, an IC50 [2] of 12.8 µM and an IC50 [3] of 9.28 µM. For the same compound, the IC50 [4] was 8.1 µM and the IC50 [5] was 15.2 µM.

For `C=C1C[C@]23C[C@@]1(O)CC[C@H]2c1ccc(O)c(C)c1[C@@H]3Cn1cc(-c2ccc(Cl)cc2)nn1`, the IC50 [1] was over 20 µM, the IC50 [2] was over 20 µM and the IC50 [3] was over 20 µM. For the same compound, the IC50 [4] was over 20 µM and the IC50 [5] was over 20 µM.

`C=C1C[C@]23C[C@@]1(O)CC[C@H]2c1ccc(OS(=O)(=O)c2ccc(C)cc2)c(C)c1[C@@H]3Cn1cc(-c2ccc(OC)cc2)nn1` was tested, and the IC50 [1] was over 20 µM, the IC50 [2] was over 20 µM and the IC50 [3] was over 20 µM. The IC50 [4] was over 20 µM and the IC50 [5] was over 20 µM.

In the case of `C=C1C[C@]23C[C@@]1(O)CC[C@H]2c1ccc(O)c(C)c1[C@@H]3Cn1cc(-c2ccc(F)cc2)nn1`, the IC50 [1] is reported as over 20 µM, the IC50 [2] is reported as over 20 µM and the IC50 [3] is reported as over 20 µM. It also gave an IC50 [4] of over 20 µM and an IC50 [5] of over 20 µM.

With `Cc1ccc(S(=O)(=O)Oc2ccc3c(c2C)[C@H](Cn2cc(-c4ccc(Br)cc4)nn2)[C@@]24CC(=O)[C@@](C)(CC[C@@H]32)C4)cc1` the IC50 [1] was over 20 µM, the IC50 [2] was over 20 µM and the IC50 [3] was over 20 µM. It also gave an IC50 [4] of over 20 µM and an IC50 [5] of over 20 µM.
